Measurements from paper PMC5129982, “Screen-identified selective inhibitor of lysine demethylase 5A blocks cancer cell growth and drug resistance” (Oncotarget, 2016).

Tests used:
[1] = system: H3K4 methylation in HeLa cells; test: Western blot of global H3K4 methylation, HeLa; type: cell-based, human; conditions: for H3K4me3 Fold (H3K4me3/Total H3, normalized to DMSO): 48 hr
Method: (§1) Cells were lysed as described previously. Histones were separated by centrifugation, resuspended in Laemmeli buffer, and sonicated. Protein concentration of cell lysates was measured by Bradford assay. Samples in Laemmeli buffer were boiled 10 minutes at 95°C and loaded onto 7% (whole cell lysates) or 18% (histones) SDS-PAGE gels. Membranes were blocked in 4% non-fat milk in Tris-buffered saline with 0.05% Tween (TBS-T) and incubated with primary antibodies in the same buffer or 5% bovine serum albumin in TBS-T overnight at 4°C. Membranes were incubated with secondary anti-rabbit or anti-mouse antibodies for one hour at room temperature. Blots were visualized by Thermo Scientific Pierce ECL Western Blotting Substrate (32106) or EMD Millipore Immobilon Western Chemiluminescent HRP Substrate (WBKLS0100) on film. Signal was quantified using ImageJ software.

HeLa cells = test: Colony formation assay, HeLa; type: cell-based, human; conditions: two-week treatment, 50 or 100 μM
Method: Cells were seeded in 6-well plates at low density: HeLa, MCF7, BT474, and PC9 cells at 1000, 2000, 2500, and 2000 cells/well respectively. Media containing the prescribed drugs or 0.1% DMSO was replaced every 3 days. Trastuzumab was used at 5 μg/ml. Gefitinib was used at 2 μM. YUKA1 was used at 50 or 100 μM. Doxycycline was used at 1 μg/ml for 3 days. After 7–42 days depending on the rate of cell growth, cells were fixed in 4% para-formaldehyde in phosphate-buffered saline for 10 minutes rocking at room temperature. They were incubated in 0.05% crystal violet in double-distilled water for 30 minutes rocking at room temperature, washed with water, and dried 24 hours before photographing. ColonyArea, a plugin for ImageJ software, was used for quantification. Unpaired, two-tailed student's t-test calculated using GraphPad Prism 6.0 software was used to determine significance.

FLAG-KDM5B = target: T1, FLAG-KDM5B (Homo sapiens, UniProt Q9UGL1); test: AlphaScreen KDM5B demethylation assay; type: biochemical
T1 construct: Full-length FLAG-KDM5B, FLAG-KDM5C, and His-FLAG-KDM6A production was detailed previously; FLAG (N); made in house
T1 sequence (Q9UGL1 whole entry): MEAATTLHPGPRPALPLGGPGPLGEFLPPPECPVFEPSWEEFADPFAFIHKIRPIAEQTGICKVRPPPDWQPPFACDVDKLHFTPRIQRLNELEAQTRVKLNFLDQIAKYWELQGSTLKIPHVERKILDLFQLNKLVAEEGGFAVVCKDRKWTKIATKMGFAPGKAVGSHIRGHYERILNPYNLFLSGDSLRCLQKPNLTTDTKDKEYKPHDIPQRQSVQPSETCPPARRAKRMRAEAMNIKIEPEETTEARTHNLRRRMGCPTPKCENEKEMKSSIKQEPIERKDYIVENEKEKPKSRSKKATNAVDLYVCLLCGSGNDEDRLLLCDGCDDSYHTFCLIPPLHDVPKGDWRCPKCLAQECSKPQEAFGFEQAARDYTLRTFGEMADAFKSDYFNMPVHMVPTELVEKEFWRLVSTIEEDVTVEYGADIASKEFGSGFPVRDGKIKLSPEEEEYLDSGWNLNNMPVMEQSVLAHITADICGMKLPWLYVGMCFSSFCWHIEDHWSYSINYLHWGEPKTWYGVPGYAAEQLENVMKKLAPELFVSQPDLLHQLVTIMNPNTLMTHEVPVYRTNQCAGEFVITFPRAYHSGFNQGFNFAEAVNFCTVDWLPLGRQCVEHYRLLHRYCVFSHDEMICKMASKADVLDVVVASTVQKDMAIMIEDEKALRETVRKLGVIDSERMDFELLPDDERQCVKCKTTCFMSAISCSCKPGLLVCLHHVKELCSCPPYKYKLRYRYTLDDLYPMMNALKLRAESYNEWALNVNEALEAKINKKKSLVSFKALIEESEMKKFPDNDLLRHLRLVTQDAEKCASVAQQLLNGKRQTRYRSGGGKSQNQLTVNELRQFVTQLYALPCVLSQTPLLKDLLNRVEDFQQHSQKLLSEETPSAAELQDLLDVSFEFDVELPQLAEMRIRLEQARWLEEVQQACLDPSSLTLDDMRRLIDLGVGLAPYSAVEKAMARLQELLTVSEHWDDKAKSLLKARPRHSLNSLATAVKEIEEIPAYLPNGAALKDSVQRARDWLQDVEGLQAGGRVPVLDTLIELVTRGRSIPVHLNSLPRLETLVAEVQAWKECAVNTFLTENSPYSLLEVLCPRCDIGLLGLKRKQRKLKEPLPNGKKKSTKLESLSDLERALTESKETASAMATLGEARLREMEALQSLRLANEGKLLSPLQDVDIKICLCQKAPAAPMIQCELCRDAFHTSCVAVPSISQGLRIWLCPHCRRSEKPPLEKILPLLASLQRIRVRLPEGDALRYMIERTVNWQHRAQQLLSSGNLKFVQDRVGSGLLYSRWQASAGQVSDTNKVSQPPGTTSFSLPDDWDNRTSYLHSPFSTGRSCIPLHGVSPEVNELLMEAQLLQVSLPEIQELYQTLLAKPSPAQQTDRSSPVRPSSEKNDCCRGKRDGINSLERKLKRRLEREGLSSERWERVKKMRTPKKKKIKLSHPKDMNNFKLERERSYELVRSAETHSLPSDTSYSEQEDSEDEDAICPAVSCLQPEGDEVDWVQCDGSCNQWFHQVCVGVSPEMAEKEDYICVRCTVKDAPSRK
Method: (§2) Histone demethylase assays were performed as described previously, with the exception of all enzyme reactions containing 125 μM α-KG. Enzymes were used at the following approximate concentrations in validation experiments, chosen based on their activity in AlphaScreen assays: 19 nM FLAG-KDM5A, 15 nM FLAG-KDM5B, 6 nM FLAG-KDM5C, 29 nM His-FLAG-KDM6A, and 16 nM FLAG-KDM6B. 24 nM FLAG-KDM5A was used for Km determination experiments. Reactions were carried out for 1 hour, or were stopped by addition of 30 mM EDTA every 5 minutes for determining enzyme kinetics. Km values were calculated using the Michaelis-Menten non-linear regression analysis on GraphPad Prism 6.0 software. The concentration of DMSO in demethylation reactions was 0.05%. For reactions with catalase, catalase (Sigma C30) or an equal volume of dilution buffer was added to the peptide-containing buffer before addition of the demethylase. The final concentration of catalase in the reactions was 0.01 mg/ml.
(§3) The AlphaScreen general IgG (protein A) detection kit from PerkinElmer Life Sciences was used as described previously. The luminescence emission was recorded at 570 nm using the AlphaScreen optic module on a Pherastar (BMG Labtech) or Envision (PerkinElmer Life Sciences) microplate reader.

MDA-MB-231 cells = test: WST-1 proliferation assay, MDA-MB-231; type: cell-based, human; conditions: MDA-MB-231, 5 days of treatment
Method: WST-1 reagent from Roche Applied Sciences (11644807001) was used to measure cell number before drug addition and after 3 or 5 days of growth as described previously. Cells were seeded in 96-well plates at the following number of cells per well: HeLa (2000), MCF7 (2000), ZR-75-1 (1000), MCF10A (1000), MDA-MB-231(5000). DMSO was used at 0.1%. Relative absorbance was calculated by subtracting the average background (media only) signal, dividing by the average signal on day 0, and then dividing by the average day 5/day 0 ratio for the DMSO controls. Significance was calculated by unpaired, two-tailed student's t-test using GraphPad Prism 6.0 software.

[2] = system: H3K4 methylation in MDA-MB-231 cells; test: Western blot of global H3K4 methylation, MDA-MB-231; type: cell-based, human; conditions: MDA-MB-231, 72 hr treatment
Method: as §1

[3] = system: H3K4 methylation in MCF7 cells; test: Western blot of global H3K4 methylation, MCF7; type: cell-based, human; conditions: 48 hr
Method: as §1

[4] = system: H3K4 methylation in MCF10A cells; test: Western blot of global H3K4 methylation, MCF10A; type: cell-based, human; conditions: 72 hr treatment
Method: as §1

His-FLAG-KDM6A (UTX) = target: T2, His-FLAG-KDM6A (UTX) (Homo sapiens, UniProt O15550); test: AlphaScreen KDM6A demethylation assay; type: biochemical
T2 construct: Full-length FLAG-KDM5B, FLAG-KDM5C, and His-FLAG-KDM6A production was detailed previously; His (N); FLAG (N); made in house
T2 sequence (O15550 whole entry): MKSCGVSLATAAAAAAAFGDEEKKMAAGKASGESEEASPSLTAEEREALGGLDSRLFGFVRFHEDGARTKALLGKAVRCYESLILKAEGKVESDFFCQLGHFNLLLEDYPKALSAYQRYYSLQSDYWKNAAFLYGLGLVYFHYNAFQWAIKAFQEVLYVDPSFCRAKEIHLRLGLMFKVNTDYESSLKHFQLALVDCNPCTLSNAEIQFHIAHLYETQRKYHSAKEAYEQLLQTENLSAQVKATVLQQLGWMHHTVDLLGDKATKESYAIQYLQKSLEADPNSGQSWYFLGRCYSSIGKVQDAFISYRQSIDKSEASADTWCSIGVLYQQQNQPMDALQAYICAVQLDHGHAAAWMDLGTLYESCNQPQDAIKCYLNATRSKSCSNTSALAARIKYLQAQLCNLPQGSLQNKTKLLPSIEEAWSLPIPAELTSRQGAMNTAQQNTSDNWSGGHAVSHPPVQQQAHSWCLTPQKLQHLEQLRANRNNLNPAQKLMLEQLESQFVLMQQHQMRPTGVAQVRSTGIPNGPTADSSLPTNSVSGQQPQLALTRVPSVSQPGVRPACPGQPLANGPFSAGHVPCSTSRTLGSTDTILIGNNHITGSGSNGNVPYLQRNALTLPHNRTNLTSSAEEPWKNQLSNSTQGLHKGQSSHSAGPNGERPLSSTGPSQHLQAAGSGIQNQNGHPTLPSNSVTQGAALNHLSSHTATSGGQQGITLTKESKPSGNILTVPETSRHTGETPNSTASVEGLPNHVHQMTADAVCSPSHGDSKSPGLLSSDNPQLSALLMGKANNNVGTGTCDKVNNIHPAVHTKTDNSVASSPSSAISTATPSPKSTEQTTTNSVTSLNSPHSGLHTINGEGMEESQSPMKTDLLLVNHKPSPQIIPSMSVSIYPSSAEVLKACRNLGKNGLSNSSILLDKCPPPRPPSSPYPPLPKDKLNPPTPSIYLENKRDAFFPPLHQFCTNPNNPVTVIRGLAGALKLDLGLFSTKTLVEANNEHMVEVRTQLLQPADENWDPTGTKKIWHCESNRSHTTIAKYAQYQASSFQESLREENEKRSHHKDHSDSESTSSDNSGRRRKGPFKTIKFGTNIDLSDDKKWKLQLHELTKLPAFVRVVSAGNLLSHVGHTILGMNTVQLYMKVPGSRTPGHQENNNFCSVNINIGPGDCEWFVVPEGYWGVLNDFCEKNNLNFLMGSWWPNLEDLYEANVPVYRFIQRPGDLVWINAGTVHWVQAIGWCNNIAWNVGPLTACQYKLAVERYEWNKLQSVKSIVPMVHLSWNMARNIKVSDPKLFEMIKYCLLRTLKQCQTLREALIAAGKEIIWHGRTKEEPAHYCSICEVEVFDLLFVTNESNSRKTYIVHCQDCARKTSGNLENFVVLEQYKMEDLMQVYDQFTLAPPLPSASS
Method: as §2, §3

[5] = system: H3K4 methylation in ZR-75-1 cells; test: Western blot of global H3K4 methylation, ZR-75-1; type: cell-based, human; conditions: ZR-75-1, 48 hour treatment
Method: as §1

FLAG-KDM5C = target: T3, FLAG-KDM5C (Homo sapiens, UniProt P41229); test: AlphaScreen KDM5C demethylation assay; type: biochemical
T3 construct: Full-length FLAG-KDM5B, FLAG-KDM5C, and His-FLAG-KDM6A production was detailed previously; FLAG (N); made in house
T3 sequence (P41229 whole entry): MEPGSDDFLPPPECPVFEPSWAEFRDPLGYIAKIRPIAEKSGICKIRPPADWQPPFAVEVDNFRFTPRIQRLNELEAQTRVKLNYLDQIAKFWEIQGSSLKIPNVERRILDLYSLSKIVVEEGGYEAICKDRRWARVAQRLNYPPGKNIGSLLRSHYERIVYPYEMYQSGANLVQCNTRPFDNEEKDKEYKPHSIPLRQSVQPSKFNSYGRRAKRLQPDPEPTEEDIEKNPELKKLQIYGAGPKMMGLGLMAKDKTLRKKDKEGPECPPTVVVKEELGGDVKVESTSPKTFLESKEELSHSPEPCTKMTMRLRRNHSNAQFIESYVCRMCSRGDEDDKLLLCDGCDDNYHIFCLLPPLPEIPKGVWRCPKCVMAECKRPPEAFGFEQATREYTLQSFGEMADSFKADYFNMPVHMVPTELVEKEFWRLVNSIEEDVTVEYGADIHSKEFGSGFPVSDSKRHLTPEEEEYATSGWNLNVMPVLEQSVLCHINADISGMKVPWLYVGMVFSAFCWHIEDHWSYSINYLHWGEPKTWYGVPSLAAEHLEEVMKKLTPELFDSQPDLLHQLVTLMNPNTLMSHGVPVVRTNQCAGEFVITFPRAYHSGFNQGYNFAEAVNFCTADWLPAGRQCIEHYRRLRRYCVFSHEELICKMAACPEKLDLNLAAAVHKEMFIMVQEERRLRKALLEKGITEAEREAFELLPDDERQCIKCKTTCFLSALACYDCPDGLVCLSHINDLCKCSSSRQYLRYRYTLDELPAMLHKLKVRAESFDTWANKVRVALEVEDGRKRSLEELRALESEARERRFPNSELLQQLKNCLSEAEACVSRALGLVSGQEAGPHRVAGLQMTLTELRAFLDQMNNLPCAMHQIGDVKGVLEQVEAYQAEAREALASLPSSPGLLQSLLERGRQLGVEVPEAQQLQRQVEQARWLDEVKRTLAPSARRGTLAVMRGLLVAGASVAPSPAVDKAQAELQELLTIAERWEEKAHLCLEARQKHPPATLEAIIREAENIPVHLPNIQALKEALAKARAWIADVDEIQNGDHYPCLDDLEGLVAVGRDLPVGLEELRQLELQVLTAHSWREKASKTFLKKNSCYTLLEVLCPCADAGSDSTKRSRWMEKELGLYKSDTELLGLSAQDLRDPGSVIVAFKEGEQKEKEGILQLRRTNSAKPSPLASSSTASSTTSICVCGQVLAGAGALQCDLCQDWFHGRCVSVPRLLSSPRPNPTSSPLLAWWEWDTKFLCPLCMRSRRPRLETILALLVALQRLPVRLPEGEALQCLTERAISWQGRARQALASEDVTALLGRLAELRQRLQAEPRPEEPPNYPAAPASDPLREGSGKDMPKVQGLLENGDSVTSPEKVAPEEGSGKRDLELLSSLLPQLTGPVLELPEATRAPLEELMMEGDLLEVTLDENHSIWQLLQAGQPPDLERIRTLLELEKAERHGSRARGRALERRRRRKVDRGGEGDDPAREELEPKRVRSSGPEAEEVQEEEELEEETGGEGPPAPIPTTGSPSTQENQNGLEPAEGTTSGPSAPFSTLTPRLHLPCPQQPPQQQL
Method: as §2, §3

Compound: C=CCOc1c(CNn2cnnc2S)cccc1OC [YUKA1, 4-([2-(allyloxy)-3-methoxybenzyl]amino)-4H-1,2,4-triazole-3-thiol]
- H3K4me2 and H3K4me1 levels ([1]; HeLa): increased
- cell activity by global H3K4 methylation changes ([1]; HeLa and MCF7 cells, western blot): cell-active
- H3K4me3 Fold (H3K4me3/Total H3, normalized to DMSO) ([1]; HeLa, 50 μM): 3.0
- H3K4me3 Fold (H3K4me3/Total H3, normalized to DMSO) ([1]; HeLa, 100 μM): 3.2
- global H3K4me3 levels ([1]; HeLa, 48 hour treatment): dose-dependent increase
- number of colonies formed compared to DMSO (HeLa cells): significantly reduced
- IC50 (FLAG-KDM5B; AlphaScreen): > 50 µM
- activity against KDM5B (FLAG-KDM5B; at 50 μM): no activity
- decrease in cell proliferation (MDA-MB-231 cells): 10–15%
- H3K4 methylation [2]: only minor changes
- H3K4me3 Fold (H3K4me3/Total H3, normalized to DMSO) ([3]; MCF7, 50 μM): 0.8
- H3K4me3 Fold (H3K4me3/Total H3, normalized to DMSO) ([3]; MCF7, 100 μM): 0.8
- H3K4 methylation levels [4]: did not affect H3K4 methylation levels
- IC50 (His-FLAG-KDM6A (UTX)): > 50 µM
- global H3K4me3 levels [5]: increased global H3K4me3 levels
- fold less active against KDM5C (than KDM5A) (FLAG-KDM5C): ~ 3 fold
- IC50 (FLAG-KDM5C; AlphaScreen): 7.12 µM
